From patent US4360595A, “Fermentation process for producing anandimycin” (Bristol-Myers Company, priority 1981, dated 1982)
Converted amounts (≈) assume the structure as drawn.

Tests used:
[1] = test system: E. coli 15119; experiment: in vitro MIC, standard tube dilution procedure; assay type: cell-based; conditions: Escherichia coli, 15119, read-out: Minimum Inhibitory Concentration
Procedure: (§1) The in vitro minimum inhibitory concentrations (MIC) of anandimycin were determined against a variety of microorganisms using the standard tube dilution procedure.

[2] = test system: E. coli 20341-1; experiment: in vitro MIC, standard tube dilution procedure; assay type: cell-based; conditions: Escherichia coli, 203411, read-out: Minimum Inhibitory Concentration
Procedure: as §1

[3] = test system: Ent. cloacae 9659; experiment: in vitro MIC, standard tube dilution procedure; assay type: cell-based; conditions: Enterobacter cloacae, 9659, read-out: Minimum Inhibitory Concentration
Procedure: as §1

[4] = test system: K. pneumoniae 15130; experiment: in vitro MIC, standard tube dilution procedure; assay type: cell-based; conditions: Klebsiella pneumoniae, 15130, read-out: Minimum Inhibitory Concentration
Procedure: as §1

[5] = test system: Pr. mirabilis 9900; experiment: in vitro MIC, standard tube dilution procedure; assay type: cell-based; conditions: Proteus mirabilis, 9900, read-out: Minimum Inhibitory Concentration
Procedure: as §1

[6] = test system: Pr. vulgaris 21559; experiment: in vitro MIC, standard tube dilution procedure; assay type: cell-based; conditions: Proteus vulgaris, 21559, read-out: Minimum Inhibitory Concentration
Procedure: as §1

[7] = test system: Ps. aeruginosa 9843A; experiment: in vitro MIC, standard tube dilution procedure; assay type: cell-based; conditions: Pseudomonas aeruginosa, 9843A, read-out: Minimum Inhibitory Concentration
Procedure: as §1

[8] = test system: Ser. marcescens 20019; experiment: in vitro MIC, standard tube dilution procedure; assay type: cell-based; conditions: Serratia marcescens, 20019, read-out: Minimum Inhibitory Concentration
Procedure: as §1

[9] = test system: Staph. aureus (penicillin-resistant) 9606; experiment: in vitro MIC, standard tube dilution procedure; assay type: cell-based; conditions: Staphylococcus aureus, read-out: Minimum Inhibitory Concentration
Procedure: as §1

[10] = test system: Staph. aureus 9587; experiment: in vitro MIC, standard tube dilution procedure; assay type: cell-based; conditions: Staphylococcus aureus, 9587, read-out: Minimum Inhibitory Concentration
Procedure: as §1

[11] = test system: Str. faecalis 20,588; experiment: in vitro MIC, standard tube dilution procedure; assay type: cell-based; conditions: Enterococcus faecalis, read-out: Minimum Inhibitory Concentration
Procedure: as §1

[12] = test system: Str. pneumoniae 9585; experiment: in vitro MIC, standard tube dilution procedure; assay type: cell-based; conditions: Streptococcus pneumoniae, 9585, read-out: Minimum Inhibitory Concentration
Procedure: as §1

[13] = test system: Str. pyogenes 9604; experiment: in vitro MIC, standard tube dilution procedure; assay type: cell-based; conditions: Streptococcus pyogenes, 9604, read-out: Minimum Inhibitory Concentration
Procedure: as §1

[14] = test system: E. coli; experiment: lysogenic bacterial induction (ILB) assay; assay type: cell-based
Text: Analytical high pressure liquid chromatography, Bacillus subtilis zone of inhibition, lysogenic bacterial induction and P388 mouse tumor assays are used throughout the above-described separation processes to monitor relative levels of anandimycin and co-produced substances.

[15] = test system: P-388 leukemia; experiment: transplantable mouse tumor P-388 leukemia; assay type: in vivo, mouse (CDF1 female mice); conditions: for MST: control 9.0 days; for Effect MST % T/C: ≥ 125 significant
Procedure: Anandimycin was also tested against the transplantable mouse tumor P-388 leukemia. The methodology used generally followed the protocols of the National Cancer Institute (Cancer Chemotherapy Rep., Part 3, 3, 1-103 (1972). The essential experimental details are given at the bottom of the following table. Two different dose regimens are tested: single dose on day 1 and three doses given on days 1, 5 and 9. The optimal dose was 64 mg/kg. single dose.
Tumor inoculum: 10^6 ascites cells implanted
Host: CDF1 .female. mice
Evaluation: MST = median survival
Effect: % T/C = (MST treated/MST control) ×
Criteria: % T/C ≥ 125 considered significant antitumor
Tox: […] 4/6 mice alive on day 5
AWC = average weight gain (treatedcontrol) in grams (on day 4)

[16] = test system: tumors; experiment: antitumor activity (in words); design: species or system experimental animals; conditions: in vivo

## C=Cc1cc(OC)c2c(c1)c(=O)oc1c2cc(OC)c2c(O)ccc(C3OC(C(C)O)C(O)C3O)c21 (stereo not shown) [Anandimycin]
[1]
  MIC: > 63 µg/mL
[2]
  MIC: > 63 µg/mL
[3]
  MIC: > 63 µg/mL
[4]
  MIC: > 63 µg/mL
[5]
  MIC: > 63 µg/mL
[6]
  MIC: 2 µg/mL (≈ 4.04 µM)
[7]
  MIC: > 63 µg/mL
[8]
  MIC: > 63 µg/mL
[9]
  MIC: 0.25 µg/mL (≈ 0.506 µM)
[10]
  MIC: 0.06 µg/mL (≈ 0.121 µM)
[11]
  MIC: 0.016 µg/mL (≈ 0.0324 µM)
[12]
  MIC: 0.13 µg/mL (≈ 0.263 µM)
[13]
  MIC: 0.13 µg/mL (≈ 0.263 µM)
[14]; above 1.6 μg/ml
  toxicity to the host organism (E. coli): toxic to the host organism
[14]; maximum concentration of 1.6 μg/ml
  ILB activity: completely devoid of ILB activity
[15]; d.1,5&9, IP, 0.5 mg/kg/inj.
  AWC Day 4: -0.1 gm.
  Survivors Day 5(30): 6/6
  MST: 9.0 days
  Effect MST % T/C: 100%
[15]; d.1,5&9, IP, 1 mg/kg/inj.
  AWC Day 4: +0.6 gm.
  Survivors Day 5(30): 6/6
  MST: 9.0 days
  Effect MST % T/C: 100%
[15]; d.1,5&9, IP, 2 mg/kg/inj.
  AWC Day 4: +0.2 gm.
  Survivors Day 5(30): 6/6
  MST: 9.0 days
  Effect MST % T/C: 100%
[15]; d.1,5&9, IP, 4 mg/kg/inj.
  AWC Day 4: +0.7 gm.
  Survivors Day 5(30): 6/6
  MST: 10.5 days
  Effect MST % T/C: 117%
[15]; d.1,5&9, IP, 8 mg/kg/inj.
  AWC Day 4: +0.2 gm.
  Survivors Day 5(30): 6/6
  MST: 13.5 days
  Effect MST % T/C: 150%
[15]; d.1,5&9, IP, 16 mg/kg/inj.
  AWC Day 4: 0 gm.
  Survivors Day 5(30): 5/5
  MST: 13.0 days
  Effect MST % T/C: 144%
[15]; d.1, IP, 0.5 mg/kg/inj.
  AWC Day 4: -0.1 gm.
  Survivors Day 5(30): 6/6
  MST: 9.0 days
  Effect MST % T/C: 100%
[15]; d.1, IP, 1 mg/kg/inj.
  AWC Day 4: -0.1 gm.
  Survivors Day 5(30): 6/6
  MST: 9.0 days
  Effect MST % T/C: 100%
[15]; d.1, IP, 2 mg/kg/inj.
  AWC Day 4: -0.2 gm.
  Survivors Day 5(30): 5/5
  MST: 10.0 days
  Effect MST % T/C: 111%
[15]; d.1, IP, 4 mg/kg/inj.
  AWC Day 4: -0.9 gm.
  Survivors Day 5(30): 6/6
  MST: 10.0 days
  Effect MST % T/C: 111%
[15]; d.1, IP, 8 mg/kg/inj.
  AWC Day 4: -0.2 gm.
  Survivors Day 5(30): 6/6
  MST: 11.5 days
  Effect MST % T/C: 128%
[15]; d.1, IP, 16 mg/kg/inj.
  AWC Day 4: -0.6 gm.
  Survivors Day 5(30): 6/6
  MST: 11.0 days
  Effect MST % T/C: 122%
[15]; d.1, IP, 32 mg/kg/inj.
  AWC Day 4: -0.6 gm.
  Survivors Day 5(30): 6/6
  MST: 13.0 days
  Effect MST % T/C: 144%
[15]; d.1, IP, 64 mg/kg/inj.
  AWC Day 4: -0.3 gm.
  Survivors Day 5(30): 6/6
  MST: 14.5 days
  Effect MST % T/C: 161%
[15]; single dose
  optimal dose: 64 mg/kg
[16]
  antitumor activity: inhibit the growth of tumors in experimental animals
